{"source": "patent US20230094545A1", "about": "“S1P RECEPTOR MODULATORS” (AKAAL PHARMA PTY LTD, priority 2020, published 2023)", "key": {"[1]": {"tested_on": "formalin induced nociception", "assay": "Formalin induced nociception (pain)", "type": "in vivo, Sprague Dawley rats", "description": "Forty male Sprague Dawley rats were assigned to different treatment and control groups containing 8 animals/group. The groups were treated with different doses of a compound of Formula I and received either 0.03, 0.3 and 3.0 mg/kg dose, administered orally 30 min before formalin injection. Tramadol hydrochloride (30 mg/kg) was administered orally 30 min before formalin injection as a positive control. Deionized water was used as a negative control (Vehicle) and administered orally 30 min before formalin injection. Individual rats were then gently restrained and formalin (5% in v/v in saline, 50 μl, s.c.) was injected into the plantar surface of the left hind paw using a 27G needle. Post-formalin nociceptive behaviour, paw flinching was recorded for 60 min, in bins of 5 min. The intra plantar injection of formalin (50 μl, 5% v/v) induced marked flinching of the ipsilateral rat paw with typical biphasic response in the vehicle/distilled water treated animals. […] Inhibition of nociceptive behaviour at 0.3 mg/kg (33%, p<0.05) and 3.0 mg/kg (45%, p<0.01) were statistically significant compared to vehicle control."}, "[2]": {"tested_on": "atopic dermatitis and psoriasis disease models", "assay": "Atopic dermatitis and psoriasis disease models, cytokines", "conditions": "in vivo"}, "[3]": {"tested_on": "middle cerebral artery occlusion (MCAO)", "assay": "Middle cerebral artery occlusion (MCAO) model of stroke", "type": "in vivo", "conditions": "oral 1, 3 and 5 mg/kg; ischemia 60 min, reperfusion 72 h", "description": "The compound of Formula I was assessed in an animal model of stroke, namely the middle cerebral artery occlusion (MCAO) model. The effect of a compound of Formula I on infarctions (TTC staining) and BBB leakage (Evan's blue extravasation) ischemia for 60 min and reperfusion for 72 h was assessed."}, "Incision mediated pain": {"tested_on": "Incision mediated pain", "assay": "Deep incision wound mediated pain, topical treatment", "type": "in vivo, Sprague Dawley Rats", "from_the_text": "(§1) The total 24 female Sprague Dawley Rats were assigned to two test and two control groups having 6 animals per group. Animals from G1 and G2 received CFA on Day 1 by intraplanter route followed application of test item (0 and 3% respectively), onto injection site from Day 1 to Day 7. Group G3 and G4 animals received deep incision through the skin and fascia of the plantar foot followed by application of test item (0 and 3% respectively), onto the incision site from Day 1 to Day 7. Clinical signs, body weight and pain assessment parameters like Von Frey estimation and FOB was evaluated and the pain reduction results at Day 7 are summarized in Table 7."}, "[4]": {"assay": "Single oral dose in healthy human subjects: systemic exposure, heart rate, lymphopenia", "type": "in vivo", "conditions": "humans; for bradycardia: 0.5 mg to 12 mg single oral dose, 72 hours monitoring", "description": "The observance of bradycardia with S1P1 selective agonists has been reported to be species specific.\nHuman subjects were treated in cohorts of different dose levels (each cohort=8 human subjects) with a compound of formula (I)@0.5 mg, 2 mg, 6 mg and 12 mg single oral dose."}, "excision wound": {"tested_on": "excision wound", "assay": "Animal model of excision wound", "type": "in vivo, Wistar rats", "conditions": "3% w/w ointment, 0.20 g/animal wound, topically twice daily", "description": "Two groups with six Wistar rats in each group were anaesthetized with a dose of 80 mg/kg of ketamine (i.p.) and the back of the animals were shaved. One excision wound was inflicted by cutting away (with a sterile scalpel) a 600-700 mm^2 section of the full thickness of the skin from a predetermined area. The wound was left undressed to the open environment. Group 1 rats were untreated and served as sham control. Group 2 animals were treated with a compound of Formula I in an ointment formulation (3% w/w). The ointment (0.20 g/animal wound) was applied topically twice daily."}, "CFA mediated pain": {"tested_on": "CFA mediated pain", "assay": "CFA (Freund's adjuvant) mediated pain, topical treatment", "type": "in vivo, Sprague Dawley Rats", "from_the_text": "as §1"}, "[5]": {"tested_on": "experimental autoimmune encephalomyelitis (EAE)", "assay": "EAE model, RT-PCR for IL-31, IL1β and IFNγ in spleen", "type": "in vivo", "conditions": "3 mg/kg from 11th day, Day 27", "description": "The efficacy of the compound of formula (I) was assessed in an animal model of experimental autoimmune encephalomyelitis (EAE), which is a widely-accepted model of demyelinating diseases such as MS. The cDNA was prepared from spleen obtained from Vehicle treated (Control), EAE induced (no treatment) and EAE induced (a compound of formula (I) treated) animals (n=5 each group) at the recovery (Day 27 from 1st day of MBP immunization). The treatment with a compound of Formula I (3 mg/kg) was initiated on the 11th day from MBP immunization. cDNA was synthesized using Bio-Rad cDNA synthesis kit. RT-PCR was performed for IL-31, IL1β and IFNγ. Primers were obtained from Qiagen and the samples were analysed on Bio-Rad CFX96Real-Time System. […] Statistical Significance of the data is represented by p value. *denotes p≤0.05, **denotes p≤0.01."}, "[6]": {"assay": "Systemic exposure and lymphopenia in mice", "type": "in vivo"}, "[7]": {"conditions": "3% topical Day 1 to Day 7, day 7"}}}
{"smiles": "CCCOc1ccc(-c2nc(-c3ccc4oc(C(N)(CO)CO)cc4c3)no2)cc1Cl", "note": "[compound of formula (I)]", "values": [{"measurement": "inhibition of nociceptive behaviour", "setting": "[1]; 0.3 mg/kg oral 30 min before formalin, p<0.05", "result": 33, "unit": "%"}, {"measurement": "inhibition of nociceptive behaviour", "setting": "[1]; 3.0 mg/kg oral 30 min before formalin, p<0.01", "result": 45, "unit": "%"}, {"measurement": "nociceptive behaviour", "setting": "[1]; 0.03, 0.3 and 3 mg/kg oral 30 min before formalin", "result": "inhibited nociceptive behaviour"}, {"measurement": "cytokines IL17, IL23, IL2", "setting": "[2]", "result": "downregulates the cytokines IL17, IL23, IL2"}, {"measurement": "infarct volume, infarct area, sensory motor function, blood brain barrier leakage", "setting": "[3]", "result": "significantly reduced the infarct volume, infract area and sensory motor function and blood brain barrier leakage"}, {"measurement": "Pain reduction results at Day 7, Incision mediated pain", "setting": "Incision mediated pain; 3% (G4), Placebo (G3) 0.33", "result": 0.11}, {"measurement": "pain relief", "setting": "Incision mediated pain; [7]", "result": 67, "unit": "%"}, {"measurement": "systemic exposure", "setting": "[4]; 0.5 mg single oral dose", "result": 0.6, "unit": "ng/mL"}, {"measurement": "bradycardia", "setting": "[4]", "result": "no bradycardia events"}, {"measurement": "bradycardia", "setting": "[4]; listed as S1P1 receptor modulator of formula (I)", "result": "did not induce bradycardia"}, {"measurement": "bradycardia", "setting": "[4]; listed as compound of Formula I", "result": "no dose proportional or dose relevant bradycardia event"}, {"measurement": "systemic exposure", "setting": "[4]; 2 mg single oral dose", "result": 2.4, "unit": "ng/mL"}, {"measurement": "systemic exposure", "setting": "[4]; 6 mg single oral dose", "result": 7.1, "unit": "ng/mL"}, {"measurement": "systemic exposure", "setting": "[4]; 12 mg single oral dose", "result": 18.8, "unit": "ng/mL"}, {"measurement": "lymphopenia", "setting": "[4]; dose of ~0.17 mg/kg", "result": "no induction of significant lymphopenia"}, {"measurement": "systemic exposure", "setting": "[4]; dose of ~0.17 mg/kg", "result": 18.8, "unit": "ng/mL"}, {"measurement": "wound healing", "setting": "excision wound", "result": "did not inhibit or impair the wound healing"}, {"measurement": "Pain reduction results at Day 7, CFA mediated pain", "setting": "CFA mediated pain; 3% (G2), Placebo (G1) 0.17", "result": 0.00}, {"measurement": "pain relief", "setting": "CFA mediated pain; [7]", "result": "complete pain relief"}, {"measurement": "markers of inflammation (IL-31, IL1β, IFNγ, RT-PCR, spleen)", "setting": "[5]", "result": "significantly reduced markers of inflammation"}, {"measurement": "measured lymphopenia", "setting": "[6]; 0.3 mg/kg, 6 hours post dose", "result": 40, "unit": "%"}, {"measurement": "systemic exposure", "setting": "[6]; dose of 0.3 mg/kg", "result": 6.36, "unit": "ng/mL"}]}
